Measurements published in ChEMBL document CHEMBL5649167, “The SUV4-20 inhibitor A-196 verifies a role for epigenetics in genomic integrity” (Nat Chem Biol, 2017).

Tests used:
[1] = target: Adenosine receptor A2a (Homo sapiens) (UniProt P29274); experiment: Inhibition of human Adenosine receptor A2a at 10 uM relative to control
Homo sapiens [2] = species: Homo sapiens; experiment: Inhibition of human GABA-gated Cl- channel at 10 uM relative to control
[3] = target: Adenosine receptor A3 (Homo sapiens) (UniProt P0DMS8); experiment: Inhibition of human Adenosine receptor A3 at 10 uM relative to control
[4] = target: Kappa-type opioid receptor (Homo sapiens) (UniProt P41145); experiment: Inhibition of human Kappa-type opioid receptor at 10 uM relative to control
Chain of Kappa-type opioid receptor (Homo sapiens) (P41145 whole entry): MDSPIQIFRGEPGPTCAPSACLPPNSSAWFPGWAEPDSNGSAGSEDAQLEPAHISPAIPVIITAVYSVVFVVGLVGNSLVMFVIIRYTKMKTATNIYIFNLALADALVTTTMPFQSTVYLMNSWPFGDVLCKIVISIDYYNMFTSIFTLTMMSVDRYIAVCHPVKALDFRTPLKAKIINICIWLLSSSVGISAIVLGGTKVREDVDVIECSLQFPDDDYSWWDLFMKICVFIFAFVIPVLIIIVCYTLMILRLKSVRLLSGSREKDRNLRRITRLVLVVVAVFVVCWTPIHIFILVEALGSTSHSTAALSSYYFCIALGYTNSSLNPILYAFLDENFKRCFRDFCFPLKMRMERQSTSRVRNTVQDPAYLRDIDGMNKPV

[5] = target: T1, Muscarinic acetylcholine receptor M1 (Homo sapiens) (UniProt P11229); experiment: Inhibition of human Muscarinic acetylcholine receptor M1 at 10 uM relative to control
T1 sequence (whole entry): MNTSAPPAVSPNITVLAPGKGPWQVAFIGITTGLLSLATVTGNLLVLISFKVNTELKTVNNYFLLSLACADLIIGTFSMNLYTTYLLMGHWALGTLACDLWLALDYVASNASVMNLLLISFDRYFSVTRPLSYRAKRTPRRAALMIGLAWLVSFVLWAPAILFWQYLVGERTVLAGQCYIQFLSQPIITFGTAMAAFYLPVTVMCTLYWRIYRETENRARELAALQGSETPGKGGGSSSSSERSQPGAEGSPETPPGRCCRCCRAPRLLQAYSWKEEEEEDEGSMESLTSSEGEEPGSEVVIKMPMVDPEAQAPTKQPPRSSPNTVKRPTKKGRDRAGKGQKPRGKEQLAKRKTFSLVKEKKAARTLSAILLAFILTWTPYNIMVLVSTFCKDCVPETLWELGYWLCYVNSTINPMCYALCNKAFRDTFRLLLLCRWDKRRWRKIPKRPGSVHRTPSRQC

Homo sapiens [6] = species: Homo sapiens; experiment: Inhibition of human Sodium channel site 2 at 10 uM relative to control
[7] = target: Sodium-dependent dopamine transporter (Homo sapiens) (UniProt Q01959); experiment: Inhibition of human Sodium-dependent dopamine transporter at 10 uM relative to control
[8] = target: Melanocortin receptor 4 (Homo sapiens) (UniProt P32245); experiment: Inhibition of human Melanocortin receptor 4 at 10 uM relative to control
Chain of Melanocortin receptor 4 (Homo sapiens) (P32245 whole entry): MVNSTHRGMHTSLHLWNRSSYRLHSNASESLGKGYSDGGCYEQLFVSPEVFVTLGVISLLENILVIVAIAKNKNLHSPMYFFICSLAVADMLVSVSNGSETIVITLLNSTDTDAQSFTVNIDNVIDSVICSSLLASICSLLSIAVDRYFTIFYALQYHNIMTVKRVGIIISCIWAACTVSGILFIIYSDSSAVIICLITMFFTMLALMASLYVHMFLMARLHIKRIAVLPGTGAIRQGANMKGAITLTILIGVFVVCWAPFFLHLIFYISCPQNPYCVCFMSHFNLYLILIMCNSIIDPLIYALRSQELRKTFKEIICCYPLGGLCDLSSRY

[9] = target: Muscarinic acetylcholine receptor M3 (Homo sapiens) (UniProt P20309); experiment: Inhibition of human Muscarinic 3 at 10 uM relative to control
[10] = target: Type-1 angiotensin II receptor (Homo sapiens) (UniProt P30556); experiment: Inhibition of human AT1 at 10 uM relative to control
[11] = target: Prostaglandin E2 receptor EP4 subtype (Homo sapiens) (UniProt P35408); experiment: Inhibition of human Prostanoid EP4 receptor at 10 uM relative to control
[12] = target: Beta-1 adrenergic receptor (Homo sapiens) (UniProt P08588); experiment: Inhibition of human Beta-1 adrenoceptor at 10 uM relative to control
Chain of Beta-1 adrenergic receptor (Homo sapiens) (P08588 whole entry, looked up): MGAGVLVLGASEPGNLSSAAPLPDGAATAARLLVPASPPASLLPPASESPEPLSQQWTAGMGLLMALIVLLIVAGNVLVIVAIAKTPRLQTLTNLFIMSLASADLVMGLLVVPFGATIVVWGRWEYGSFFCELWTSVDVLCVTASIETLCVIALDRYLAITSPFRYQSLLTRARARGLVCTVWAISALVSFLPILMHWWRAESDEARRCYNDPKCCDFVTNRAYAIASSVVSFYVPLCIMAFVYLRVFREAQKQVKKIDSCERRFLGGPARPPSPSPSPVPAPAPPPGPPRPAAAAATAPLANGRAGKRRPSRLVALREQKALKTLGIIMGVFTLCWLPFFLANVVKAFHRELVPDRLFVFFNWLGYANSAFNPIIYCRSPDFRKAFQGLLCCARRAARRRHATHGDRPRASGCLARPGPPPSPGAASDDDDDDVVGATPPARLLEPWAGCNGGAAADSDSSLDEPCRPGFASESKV

Rattus norvegicus = species: Rattus norvegicus; experiment: Inhibition of Rat Somatostatin at 10 uM relative to control
[13] = target: B2 bradykinin receptor (Homo sapiens) (UniProt P30411); experiment: Inhibition of human BK-2 receptor at 10 uM relative to control
[14] = target: Histamine H1 receptor (Homo sapiens) (UniProt P35367); experiment: Inhibition of human HH1R at 10 uM relative to control
Chain of Histamine H1 receptor (Homo sapiens) (P35367 whole entry): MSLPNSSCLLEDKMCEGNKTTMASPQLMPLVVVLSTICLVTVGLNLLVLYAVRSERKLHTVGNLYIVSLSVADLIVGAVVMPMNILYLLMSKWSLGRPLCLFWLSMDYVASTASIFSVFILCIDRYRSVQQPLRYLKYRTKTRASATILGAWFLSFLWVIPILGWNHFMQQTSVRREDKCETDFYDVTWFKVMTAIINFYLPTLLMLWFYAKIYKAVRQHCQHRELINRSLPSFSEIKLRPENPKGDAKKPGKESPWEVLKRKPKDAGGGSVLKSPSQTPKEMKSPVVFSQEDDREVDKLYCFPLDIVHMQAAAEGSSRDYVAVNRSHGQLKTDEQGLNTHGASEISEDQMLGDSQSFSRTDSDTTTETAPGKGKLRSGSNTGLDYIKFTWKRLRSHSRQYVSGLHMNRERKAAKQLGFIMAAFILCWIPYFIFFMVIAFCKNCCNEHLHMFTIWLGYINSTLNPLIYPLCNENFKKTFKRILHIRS

[15] = target: 5-hydroxytryptamine receptor 6 (Homo sapiens) (UniProt P50406); experiment: Inhibition of human 5-HT6 at 10 uM relative to control
Chain of 5-hydroxytryptamine receptor 6 (Homo sapiens) (P50406 whole entry): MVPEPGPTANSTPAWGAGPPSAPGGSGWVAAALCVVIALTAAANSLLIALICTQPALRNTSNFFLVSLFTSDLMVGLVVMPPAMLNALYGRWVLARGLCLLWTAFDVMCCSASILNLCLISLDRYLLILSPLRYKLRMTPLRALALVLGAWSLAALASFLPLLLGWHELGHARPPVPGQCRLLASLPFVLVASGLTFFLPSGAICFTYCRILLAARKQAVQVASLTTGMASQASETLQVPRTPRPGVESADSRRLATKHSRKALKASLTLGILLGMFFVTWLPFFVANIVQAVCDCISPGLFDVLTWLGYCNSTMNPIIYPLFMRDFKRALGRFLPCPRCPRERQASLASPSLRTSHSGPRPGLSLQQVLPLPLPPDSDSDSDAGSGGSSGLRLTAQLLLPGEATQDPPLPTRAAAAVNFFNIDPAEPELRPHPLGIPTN

[16] = target: C-X-C chemokine receptor type 2 (Homo sapiens) (UniProt P25025); experiment: Inhibition of human CXCR2 at 10 uM relative to control
Chain of C-X-C chemokine receptor type 2 (Homo sapiens) (P25025 whole entry): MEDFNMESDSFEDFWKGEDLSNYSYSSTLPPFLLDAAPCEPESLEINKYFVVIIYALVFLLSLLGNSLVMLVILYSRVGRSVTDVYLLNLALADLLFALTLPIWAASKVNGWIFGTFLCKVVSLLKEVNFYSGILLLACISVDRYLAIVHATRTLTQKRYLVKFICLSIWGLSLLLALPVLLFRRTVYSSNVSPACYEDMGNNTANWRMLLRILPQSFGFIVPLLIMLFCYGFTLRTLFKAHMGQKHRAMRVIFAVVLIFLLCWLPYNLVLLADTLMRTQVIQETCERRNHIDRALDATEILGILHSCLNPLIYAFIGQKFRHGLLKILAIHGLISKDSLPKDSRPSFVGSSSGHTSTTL

[17] = target: Neuropeptide Y receptor type 2 (Homo sapiens) (UniProt P49146); experiment: Inhibition of human NPY-Y2 receptor at 10 uM relative to control
[18] = target: 5-hydroxytryptamine receptor 2A (Homo sapiens) (UniProt P28223); experiment: Inhibition of human 5-HT2A receptor expressed in HEK293T cells at 10 uM relative to control; type: cell-based
Chain of 5-hydroxytryptamine receptor 2A (Homo sapiens) (P28223 whole entry): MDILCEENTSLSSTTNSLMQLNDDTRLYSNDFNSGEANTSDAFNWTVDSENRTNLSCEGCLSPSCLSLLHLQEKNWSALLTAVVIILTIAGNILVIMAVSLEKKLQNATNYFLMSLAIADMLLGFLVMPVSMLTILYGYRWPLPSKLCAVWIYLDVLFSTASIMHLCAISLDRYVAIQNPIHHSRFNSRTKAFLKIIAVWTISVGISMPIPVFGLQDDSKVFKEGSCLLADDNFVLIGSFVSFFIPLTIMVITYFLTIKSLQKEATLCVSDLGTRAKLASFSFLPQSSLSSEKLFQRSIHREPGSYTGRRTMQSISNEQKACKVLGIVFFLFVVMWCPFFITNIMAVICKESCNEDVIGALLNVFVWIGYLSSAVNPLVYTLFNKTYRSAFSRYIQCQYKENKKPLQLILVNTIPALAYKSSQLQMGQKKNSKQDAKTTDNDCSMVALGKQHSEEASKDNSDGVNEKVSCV

[19] = target: Beta-1 adrenergic receptor (Homo sapiens) (UniProt P08588); experiment: Inhibition of human Beta-1 adrenergic receptor expressed in Cricetulus griseus Flp-In-CHO cells at 10 uM relative to control; type: cell-based
[20] = target: Kappa-type opioid receptor (Homo sapiens) (UniProt P41145); experiment: Inhibition of human kappa opioid receptor expressed in stable HEK cells at 10 uM relative to control; type: cell-based
[21] = target: Delta-type opioid receptor (Homo sapiens) (UniProt P41143); experiment: Inhibition of human Delta-type opioid receptor expressed in stable HEK cells at 10 uM relative to control; type: cell-based
[22] = target: 5-hydroxytryptamine receptor 5A (Homo sapiens) (UniProt P47898); experiment: Inhibition of human HTR5A expressed in Cricetulus griseus Flp-In-CHO cells at 10 uM relative to control; type: cell-based
[23] = target: D(4) dopamine receptor (Homo sapiens) (UniProt P21917); experiment: Inhibition of human D(4) dopamine receptor in stable HEK cells at 10 uM relative to control; type: cell-based
Chain of D(4) dopamine receptor (Homo sapiens) (P21917 whole entry): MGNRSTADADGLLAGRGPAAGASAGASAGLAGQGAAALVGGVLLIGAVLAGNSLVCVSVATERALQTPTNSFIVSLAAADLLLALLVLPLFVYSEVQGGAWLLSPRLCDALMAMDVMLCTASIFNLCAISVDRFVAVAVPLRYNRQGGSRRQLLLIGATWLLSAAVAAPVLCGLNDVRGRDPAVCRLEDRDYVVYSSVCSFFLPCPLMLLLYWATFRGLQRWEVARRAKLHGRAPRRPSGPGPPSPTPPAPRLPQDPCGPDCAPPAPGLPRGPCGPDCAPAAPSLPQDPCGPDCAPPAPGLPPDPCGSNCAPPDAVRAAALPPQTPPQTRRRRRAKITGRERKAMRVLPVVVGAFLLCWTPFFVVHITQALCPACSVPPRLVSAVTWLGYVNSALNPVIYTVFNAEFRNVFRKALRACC

[24] = target: Alpha-2C adrenergic receptor (Homo sapiens) (UniProt P18825); experiment: Inhibition of human Alpha-2C adrenergic receptor in stable Canis lupus familiaris MDCK cells at 10 uM relative to control; type: cell-based
[25] = target: T2, Muscarinic acetylcholine receptor M2 (Homo sapiens) (UniProt P08172); experiment: Inhibition of human Muscarinic acetylcholine receptor M2 expressed in stable Cricetulus griseus CHO cells at 10 uM relative to control; type: cell-based
T2 sequence (whole entry): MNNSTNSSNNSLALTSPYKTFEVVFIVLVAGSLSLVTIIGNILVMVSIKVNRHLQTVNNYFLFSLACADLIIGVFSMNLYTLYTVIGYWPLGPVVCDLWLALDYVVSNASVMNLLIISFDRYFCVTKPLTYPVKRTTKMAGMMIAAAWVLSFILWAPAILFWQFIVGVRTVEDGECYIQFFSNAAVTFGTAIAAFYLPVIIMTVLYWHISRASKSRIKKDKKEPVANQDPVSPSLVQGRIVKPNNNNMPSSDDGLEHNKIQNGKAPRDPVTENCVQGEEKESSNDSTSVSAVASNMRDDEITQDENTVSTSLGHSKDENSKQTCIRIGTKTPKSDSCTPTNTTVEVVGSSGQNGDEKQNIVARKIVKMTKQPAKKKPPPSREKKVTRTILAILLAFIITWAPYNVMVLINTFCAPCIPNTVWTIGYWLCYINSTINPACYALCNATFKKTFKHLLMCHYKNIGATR

[26] = target: Alpha-1A adrenergic receptor (Homo sapiens) (UniProt P35348); experiment: Inhibition of human Alpha-1A adrenergic receptor at 10 uM relative to control
Chain of Alpha-1A adrenergic receptor (Homo sapiens) (P35348 whole entry): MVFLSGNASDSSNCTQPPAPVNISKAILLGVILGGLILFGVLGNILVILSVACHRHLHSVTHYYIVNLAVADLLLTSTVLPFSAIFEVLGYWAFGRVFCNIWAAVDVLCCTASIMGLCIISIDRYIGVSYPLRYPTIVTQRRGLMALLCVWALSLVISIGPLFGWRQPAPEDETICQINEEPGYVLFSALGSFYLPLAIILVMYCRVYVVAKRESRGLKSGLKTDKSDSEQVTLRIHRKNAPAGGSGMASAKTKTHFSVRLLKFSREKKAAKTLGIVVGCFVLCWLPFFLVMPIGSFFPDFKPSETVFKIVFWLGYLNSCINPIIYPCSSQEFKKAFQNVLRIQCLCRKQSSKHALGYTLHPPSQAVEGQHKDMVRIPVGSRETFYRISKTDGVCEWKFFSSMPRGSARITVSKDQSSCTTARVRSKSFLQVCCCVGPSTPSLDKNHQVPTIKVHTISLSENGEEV

[27] = target: Histamine H4 receptor (Homo sapiens) (UniProt Q9H3N8); experiment: Inhibition of human Histamine H4 receptor expressed in HEK293T cells at 10 uM relative to control; type: cell-based
[28] = target: D(2) dopamine receptor (Homo sapiens) (UniProt P14416); experiment: Inhibition of human D(2) dopamine receptor expressed in stable human fibroblast cells at 10 uM relative to control; type: cell-based
Chain of D(2) dopamine receptor (Homo sapiens) (P14416 whole entry): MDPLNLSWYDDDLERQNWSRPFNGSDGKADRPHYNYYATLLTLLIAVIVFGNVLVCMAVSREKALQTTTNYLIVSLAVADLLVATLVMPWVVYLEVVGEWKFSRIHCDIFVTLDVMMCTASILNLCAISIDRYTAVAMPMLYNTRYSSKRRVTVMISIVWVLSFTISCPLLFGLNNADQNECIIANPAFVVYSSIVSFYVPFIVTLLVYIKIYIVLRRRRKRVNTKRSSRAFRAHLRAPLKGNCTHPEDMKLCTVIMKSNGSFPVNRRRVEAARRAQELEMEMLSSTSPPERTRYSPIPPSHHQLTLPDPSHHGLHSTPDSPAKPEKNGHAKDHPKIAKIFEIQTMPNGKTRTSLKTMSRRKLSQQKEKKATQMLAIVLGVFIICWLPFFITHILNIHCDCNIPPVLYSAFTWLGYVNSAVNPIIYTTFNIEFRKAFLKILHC

[29] = target: 5-hydroxytryptamine receptor 1D (Homo sapiens) (UniProt P28221); experiment: Inhibition of human 5-HT1D expressed in HEK293T cells at 10 uM relative to control; type: cell-based

Chain of Adenosine receptor A2a (Homo sapiens) (P29274 whole entry): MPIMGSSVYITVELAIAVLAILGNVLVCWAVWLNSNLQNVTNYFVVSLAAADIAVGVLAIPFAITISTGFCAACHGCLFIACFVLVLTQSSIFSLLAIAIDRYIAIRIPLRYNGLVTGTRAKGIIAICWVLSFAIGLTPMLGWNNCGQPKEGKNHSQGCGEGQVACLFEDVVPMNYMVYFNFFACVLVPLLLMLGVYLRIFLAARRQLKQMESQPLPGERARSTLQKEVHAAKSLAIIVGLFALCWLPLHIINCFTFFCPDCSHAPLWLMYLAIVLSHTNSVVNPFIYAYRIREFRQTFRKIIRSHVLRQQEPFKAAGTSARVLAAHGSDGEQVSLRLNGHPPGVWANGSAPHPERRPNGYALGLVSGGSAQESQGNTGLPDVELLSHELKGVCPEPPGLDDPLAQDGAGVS

Compound | inhibition [1] [%] | inhibition (Homo sapiens [2]) [%] | inhibition [3] [%] | inhibition [4] [%] | inhibition [5] [%] | inhibition (Homo sapiens [6]) [%] | inhibition [7] [%] | inhibition [8] [%] | inhibition [9] [%] | inhibition [10] [%] | inhibition [11] [%] | inhibition [12] [%] | inhibition (Rattus norvegicus) [%] | inhibition [13] [%] | inhibition [14] [%] | inhibition [15] [%] | inhibition [16] [%] | inhibition [17] [%] | inhibition [18] [%] | inhibition [19] [%] | further results
Clc1cc2c(NC3CCCC3)nnc(-c3ccncc3)c2cc1Cl | 98 | 90 | 74 | 62 | 21 | 17 | 14 | 14 | 11 | 10 | 7 | 3 | 2 | 1 | 1 | -1 | -1 | -8 | 39 | 32 | inhibition [20]: 26%; inhibition [21]: 11%; inhibition [22]: 5%; inhibition [23]: 1%; inhibition [24]: 0%; inhibition [25]: -1%; inhibition [26]: -3%; inhibition [27]: -6%; inhibition [28]: -6%; inhibition [29]: -8%
O=C(c1nnc(NC2CCCC2)c2cc(Cl)c(Cl)cc12)N1CCC(O)CC1 | 22 | 17 | 27 | 45 | 10 | -5 | -1 | -1 | 18 | -7 | -2 | 11 | 5 | -4 | 3 | -4 | 8 | -5 | 81 | -4 | inhibition [20]: 54%; inhibition [21]: 8%; inhibition [22]: -1%; inhibition [23]: -2%; inhibition [24]: 4%; inhibition [25]: -5%; inhibition [26]: -9%; inhibition [27]: -3%; inhibition [28]: 39%; inhibition [29]: 1%
